In brackets after ≈: the same amount, converted by molar mass.
Test system: Vaccinia virus
Type: functional, organism-based
Details: Orthopoxvirus vaccinia, Lederle, HEL

## Nc1ncn(C[C@@H](CO)OCP(=O)(O)O)c(=O)n1
  EC50: 2.16 µg/mL (≈ 7.71 µM)

## Nc1ncn(C[C@H]2COP(=O)(O)CO2)c(=O)n1
  EC50: 2.12 µg/mL (≈ 8.09 µM)

## CCCCCCCCCCCCCCCCOCCOP1(=O)CO[C@@H](Cn2cnc(N)nc2=O)CO1 (some centres not stated)
  EC50: 0.037 µg/mL (≈ 0.0697 µM)

## CCCCCCCCCCCCCCCCCCOP1(=O)CO[C@@H](Cn2cnc(N)nc2=O)CO1 (some centres not stated)
  EC50: 4.45 µg/mL (≈ 8.65 µM)

## CC(C)(C)C(=O)OCOP1(=O)CO[C@@H](Cn2cnc(N)nc2=O)CO1 (some centres not stated)
  EC50: 0.79 µg/mL (≈ 2.1 µM)

## Nc1ccn(C[C@@H](CO)OCP(=O)(O)O)c(=O)n1.O.O [CIDOFOVIR]
  EC50: 3.09 µg/mL

## Nc1ccn(C[C@H]2COP(=O)(O)CO2)c(=O)n1 [CYCLIC CIDOFOVIR]
  EC50: 2.78 µg/mL (≈ 10.6 µM)
